Measured values: PubChem BioAssay AID322 (DTP/NCI, 2004)
Several values for one entry are separate records, joined by “and”; a condition that tells them apart may be missing. Identical values can stand only once. Inconclusive results and toxic doses are left out.

System: CD2F1 mice, P388/ADR leukemia ip, median survival T/C
Experiment: NCI In Vivo Anticancer Drug Screen. Data for tumor model P388 Leukemia resistant to Adriamycin; NSC 123127, Developed at Scr 08 (intraperitoneal) in CD2F1 (CDF1) mice
Conditions: endpoint: median survival time, higher = longer survival
Method: The antitumor activity of compounds was measured in mice bearing transplantable tumors. Survival or tumor size were measured and the results are expressed as the measurement made in the treated group (T) divided by the measurement made in the vehicle treated control group (C). The tumor model used in this assay is P388 Leukemia resistant to Adriamycin; NSC 123127, Developed at Scr 08 (intraperitoneal) in CD2F1 (CDF1) mice

[1] = dose: 1.5 mg/kg/injection, schedule: Q01DX005 (ip), vehicle: saline with Tween-80
[2] = dose: 3.0 mg/kg/injection, schedule: Q01DX005 (ip), vehicle: saline with Tween-80
[3] = dose: 6.0 mg/kg/injection, schedule: Q01DX005 (ip), vehicle: saline with Tween-80

**Q.** Which T/C (dose: 0.04 mg/kg/injection, schedule: Q01DX005 (ip), vehicle: Klucel (hydroxypropylcellulose) (HPC)) does the source give for `CO[C@H](/C(C)=C/C=C/C(C)=C/c1coc(C)n1)[C@H](C)[C@H]1C[C@@H](O)[C@@]2(C)O[C@H]2/C=C/[C@@H](C)[C@@H]2C[C@@H](CC(=O)O2)C[C@H]2O[C@@H]2C(=O)O1` here?
**A.** 105 % of control

**Q.** And the T/C (dose: 0.06 mg/kg/injection, schedule: Q01DX005 (ip), vehicle: Klucel (hydroxypropylcellulose) (HPC))?
**A.** 109 % of control and 113 % of control

**Q.** And the T/C (dose: 0.08 mg/kg/injection, schedule: Q01DX005 (ip), vehicle: Klucel (hydroxypropylcellulose) (HPC))?
**A.** 114 % of control

**Q.** And the T/C (dose: 0.09 mg/kg/injection, schedule: Q01DX005 (ip), vehicle: Klucel (hydroxypropylcellulose) (HPC))?
**A.** 112 % of control

**Q.** And the T/C (dose: 0.1 mg/kg/injection, schedule: Q01DX005 (ip), vehicle: Klucel (hydroxypropylcellulose) (HPC))?
**A.** 117 % of control

**Q.** What about the T/C (dose: 0.12 mg/kg/injection, schedule: Q01DX005 (ip), vehicle: Klucel (hydroxypropylcellulose) (HPC)) of the same compound?
**A.** 97 % of control

**Q.** And the T/C (dose: 0.13 mg/kg/injection, schedule: Q01DX005 (ip), vehicle: Klucel (hydroxypropylcellulose) (HPC))?
**A.** 109 % of control

**Q.** And the T/C (dose: 0.14 mg/kg/injection, schedule: Q01DX005 (ip), vehicle: Klucel (hydroxypropylcellulose) (HPC))?
**A.** 96 % of control

**Q.** And the T/C (dose: 0.16 mg/kg/injection, schedule: Q01DX005 (ip), vehicle: Klucel (hydroxypropylcellulose) (HPC))?
**A.** 107 % of control

**Q.** What about the T/C (dose: 0.2 mg/kg/injection, schedule: Q01DX005 (ip), vehicle: Klucel (hydroxypropylcellulose) (HPC)) of the same compound?
**A.** 102 % of control

**Q.** What does the source list for `[N-]=[N+]=CC(=O)CCC(NC(=O)OCc1ccccc1)C(=O)OCc1ccccc1` (stereo unspecified)?
**A.** T/C (dose: 12.5 mg/kg/injection, schedule: Q01DX005 (ip), vehicle: Klucel (hydroxypropylcellulose) (HPC)): 115 % of control; T/C (dose: 25.0 mg/kg/injection, schedule: Q01DX005 (ip), vehicle: Klucel (hydroxypropylcellulose) (HPC)): 117 % of control; T/C (dose: 36.0 mg/kg/injection, schedule: Q01DX005 (ip), vehicle: Klucel (hydroxypropylcellulose) (HPC)): 100 % of control; T/C (dose: 60.0 mg/kg/injection, schedule: Q01DX005 (ip), vehicle: Klucel (hydroxypropylcellulose) (HPC)): 112 % of control; T/C (dose: 100.0 mg/kg/injection, schedule: Q01DX005 (ip), vehicle: Klucel (hydroxypropylcellulose) (HPC)): 166 % of control; T/C (dose: 200.0 mg/kg/injection, schedule: Q01DX005 (ip), vehicle: Klucel (hydroxypropylcellulose) (HPC)): 165 % of control; T/C (dose: 278.0 mg/kg/injection, schedule: Q01DX005 (ip), vehicle: Klucel (hydroxypropylcellulose) (HPC)): 155 % of control

**Q.** With `Cc1cc(O)c2c(c1O)C(=O)C13C(=C2O)C(=O)C2C(O)C1C1C(O)C3C(=O)C3=C(O)c4c(O)cc(C)c(O)c4C(=O)C321` (stereo unspecified) as the compound, how does the T/C (dose: 0.75 mg/kg/injection, schedule: Q01DX005 (ip), vehicle: saline with Tween-80) read?
**A.** 101 % of control

**Q.** And the T/C [1]?
**A.** 117 % of control

**Q.** And the T/C [2]?
**A.** 122 % of control

**Q.** What about the T/C [3] of the same compound?
**A.** 123 % of control

**Q.** For `Cc1c2ccncc2c(C)c2c1[nH]c1ccccc12`, which T/C (dose: 90.0 mg/kg/injection, schedule: Q04DX002 (ip), vehicle: saline with Tween-80) is on record?
**A.** 115 % of control

**Q.** And the T/C (dose: 134.0 mg/kg/injection, schedule: Q04DX002 (ip), vehicle: saline with Tween-80)?
**A.** 156 % of control

**Q.** What about the T/C (dose: 200.0 mg/kg/injection, schedule: Q04DX002 (ip), vehicle: saline with Tween-80) of the same compound?
**A.** 168 % of control

**Q.** And the T/C (dose: 300.0 mg/kg/injection, schedule: Q04DX002 (ip), vehicle: saline with Tween-80)?
**A.** 153 % of control

**Q.** Which T/C (dose: 30.0 mg/kg/injection, schedule: Q01DX009 (ip), vehicle: Klucel (hydroxypropylcellulose) (HPC)) does the source give for `OC(CBr)C(O)C(O)C(O)CBr` (stereo unspecified) here?
**A.** 162 % of control

**Q.** Which results are given for `COC1CC2C=C(C)/C=C/C=C/C(=O)NC(c3ccccc3)C/C=C/CCC(O)CC(=O)C2=C1O` (stereo unspecified)?
**A.** T/C (dose: 3.12 mg/kg/injection, schedule: Q01DX005 (ip), vehicle: Klucel (hydroxypropylcellulose) (HPC)): 101 % of control; T/C (dose: 6.25 mg/kg/injection, schedule: Q01DX005 (ip), vehicle: Klucel (hydroxypropylcellulose) (HPC)): 116 % of control

**Q.** `CC[C@@]1(O)C(=O)OCc2c1cc1n(c2=O)Cc2cc3ccccc3nc2-1` was tested. Which T/C [1] did it give?
**A.** 161 % of control

**Q.** What about the T/C (dose: 2.1 mg/kg/injection, schedule: Q01DX005 (ip), vehicle: saline with Tween-80) of the same compound?
**A.** 223 % of control

**Q.** What about the T/C [2] of the same compound?
**A.** 200 % of control

**Q.** What about the T/C (dose: 3.6 mg/kg/injection, schedule: Q01DX005 (ip), vehicle: saline with Tween-80) of the same compound?
**A.** 222 % of control

**Q.** What about the T/C [3] of the same compound?
**A.** 216 % of control

**Q.** What about the T/C (dose: 6.7 mg/kg/injection, schedule: Q04DX002 (ip), vehicle: saline with Tween-80) of the same compound?
**A.** 198 % of control and 232 % of control

**Q.** What about the T/C (dose: 10.0 mg/kg/injection, schedule: Q04DX002 (ip), vehicle: saline with Tween-80) of the same compound?
**A.** 207 % of control and 232 % of control

**Q.** And the T/C (dose: 15.0 mg/kg/injection, schedule: Q04DX002 (ip), vehicle: saline with Tween-80)?
**A.** 215 % of control and 236 % of control

**Q.** How did the T/C (dose: 0.5 mg/kg/injection, schedule: Q01DX005 (ip), vehicle: saline) turn out when `N[C@@H](Cc1ccc(N(CCCl)CCCl)cc1)C(=O)O` was run?
**A.** 171 % of control and 202 % of control

**Q.** And the T/C (dose: 1.0 mg/kg/injection, schedule: Q01DX005 (ip), vehicle: saline)?
**A.** 200 % of control and 202 % of control

**Q.** What about the T/C (dose: 1.62 mg/kg/injection, schedule: Q04DX003 (ip), vehicle: water) of the same compound?
**A.** 207 % of control

**Q.** And the T/C (dose: 2.0 mg/kg/injection, schedule: Q01DX005 (ip), vehicle: saline)?
**A.** 202 % of control and 297 % of control

**Q.** And the T/C (dose: 2.7 mg/kg/injection, schedule: Q04DX003 (ip), vehicle: water)?
**A.** 215 % of control

**Q.** And the T/C (dose: 4.0 mg/kg/injection, schedule: Q01DX005 (ip), vehicle: saline)?
**A.** 202 % of control and 297 % of control

**Q.** What about the T/C (dose: 4.5 mg/kg/injection, schedule: Q04DX003 (ip), vehicle: water) of the same compound?
**A.** 290 % of control

**Q.** What about the T/C (dose: 7.5 mg/kg/injection, schedule: Q04DX003 (ip), vehicle: water) of the same compound?
**A.** 109 % of control

**Q.** And the T/C (dose: 8.0 mg/kg/injection, schedule: Q01DX005 (ip), vehicle: saline)?
**A.** 297 % of control

**Q.** What about the T/C (dose: 12.5 mg/kg/injection, schedule: Q04DX003 (ip), vehicle: water) of the same compound?
**A.** 95 % of control
